How the values were obtained:
HCV genotype 1a replicon = experiment: HCV replicon assay, genotype 1a (cell ELISA for replicon-encoded NS3/4A); type: cell-based; conditions: Hepatitis C virus, 96 h, read-out: 1a IC50
Description: (§1) Measurement of inhibition by compounds was performed using the HCV replicon system. Several different replicons encoding different HCV genotypes or mutations were used. In addition, potency measurements were made using different formats of the replicon assay, including different ways of measurements and different plating formats. See Jan M. Vrolijk et al., A replicons-based bioassay for the measurement of interferons in patients with chronic hepatitis C, 110 J. V[…] 201 (2003); Steven S. Carroll et al., Inhibition of Hepatitis C Virus RNA Replication by 2′-Modified Nucleoside Analogs, 278(14) J. BIOLOGICAL CHEMISTRY 11979 (2003). However, the underlying principles are common to all of these determinations, and are outlined below.
(§2) Stable neomycin phosphotransferase encoding replicons-harboring cell lines were used, so all cell lines were maintained under G418 selection prior to the assay. Potency was determined using a cell ELISA assay with an antibody to the replicons encoded NS3/4a protease. See Caterina Trozzi et al., In Vitro Selection and Characterization of Hepatitis C Virus Serine Protease Variants Resistant to an Active-Site Peptide Inhibitor, 77(6) J. Virol. 3669 (2003). To initiate an assay, replicon cells were plated in the presence of a dilution series of test compound in the absence of G418. Typically, the assays were performed in a 96-well plate formate for manual operation, or a 384-well plate format for automated assay. Replicon cells and compound were incubated for 96 hours. At the end of the assay, cells were washed free of media and compound, and the cells were then lysed. RNA was quantified indirectly through detection of replicon-encoded NS3/4A protein levels, through an ELISA-based assay with an antibody specific for NS3/4A. IC50 determinations were calculated as a percentage of a DMSO control by fitting the data to a four-parameter fit function and the data obtained is provided in the table below.
(§3) Data for selected compounds of the present invention was obtained for genotypes 1a and 1b using this method and is provided in the table below: […]

HCV genotype 1b replicon = experiment: HCV replicon assay, genotype 1b (cell ELISA for replicon-encoded NS3/4A); type: cell-based; conditions: Hepatitis C virus, 96 h, read-out: 1b IC50
Description: as §1, §2, §3

SMILES | IC50 (HCV genotype 1a replicon) | IC50 (HCV genotype 1b replicon)
CNC(=O)c1c(-c2ccc(OCC(F)(F)F)nc2)oc2cc(N(C)S(C)(=O)=O)c(-c3ccc4c(n3)-c3cc5c(F)cccc5n3C(CO)O4)cc12 (stereo not shown) [Compound 24] | 1.7 nM | 1.4 nM
CNC(=O)c1c(-c2ccc(OC)nc2)oc2cc(N(C)S(C)(=O)=O)c(-c3ccc4c(n3)-c3nc5cccc(F)c5n3CO4)cc12 [Compound 19, 5-(8-fluoro-6H-benzo[4,5]imidazo[1,2-c]pyrido[2,3-e][1,3]oxazin-2-yl)-2-(6-methoxypyridin-3-yl)-N-methyl-6-(N-methylmethylsulfonamido)benzofuran-3-carboxamide] | 35 nM | 13 nM
CNC(=O)c1c(-c2ccc(C(F)(F)F)nc2)oc2cc(N(C)S(C)(=O)=O)c(-c3ccc4c(n3)-c3cc5c(F)cccc5n3CO4)cc12 [Compound 35] | 2.8 nM | 3.1 nM
CNC(=O)c1c(C2CC2)oc2cc(N(C)S(C)(=O)=O)c(-c3ccc4c(n3)-c3cc5c(F)cccc5n3C(CO)O4)cc12 (single isomer, unassigned) [Compound 51, (R or S)-2-cyclopropyl-5-(11-fluoro-6-(hydroxymethyl)-6H-pyrido[2′,3′:5,6][1,3]oxazino[3,4-a]indol-2-yl)-N-methyl-6-(N-methylmethylsulfonamido)benzofuran-3-carboxamide] | 8.3 nM | 15 nM
CNC(=O)c1c(C(=O)N(C)C)oc2cc(N(C)S(C)(=O)=O)c(-c3ccc4c(n3)-c3cc5c(F)cccc5n3CO4)cc12 [Compound 55] | 4 nM | 6.4 nM
CNC(=O)c1c(-c2nnc(C)o2)oc2cc(N(C)S(C)(=O)=O)c(-c3ccc4c(n3)-c3cc5c(F)cccc5n3CO4)cc12 [Compound 58, 5-(11-fluoro-6H-pyrido[2′,3′:5,6][1,3]oxazino[3,4-a]indol-2-yl)-N-methyl-2-(5-methyl-1,3,4-oxadiazol-2-yl)-6-(N-methylmethylsulfonamido)benzofuran-3-carboxamide] | 8.1 nM | 7.9 nM
CNC(=O)c1c(-c2ccc(OCC(F)(F)F)nc2)oc2cc(N(C)S(C)(=O)=O)c(-c3ccc4c(n3)-c3cc5c(F)cccc5n3CO4)cc12 [Compound 12] | 2.7 nM | 1.8 nM
CNC(=O)c1c(-c2ccc(C(F)F)nc2)oc2cc(N(C)S(C)(=O)=O)c(-c3ccc4c(n3)-c3cc5c(F)cccc5n3CO4)cc12 [Compound 9] | 2.5 nM | 3.4 nM
CNC(=O)c1c(C2CC2)oc2cc(N(C)S(C)(=O)=O)c(-c3cc4c(cn3)OC(CO)n3c-4cc4c(F)cccc43)cc12 (stereo not shown) [Compound 52] | 52 nM | 23 nM
CNC(=O)c1c(-c2ccnc(OC)c2)oc2cc(N(C)S(C)(=O)=O)c(-c3ccc4c(n3)-c3cc5c(F)cccc5n3CO4)cc12 [Compound 1, 5-(11-fluoro-6H-pyrido[2′,3′:5,6][1,3]oxazino[3,4-a]indol-2-yl)-2-(2-methoxypyridin-4-yl)-N-methyl-6-(N-methylmethylsulfonamido)benzofuran-3-carboxamide] | 11 nM | 14 nM
CNC(=O)c1c(-c2ccc(OC(F)F)nc2)oc2cc(N(C)S(C)(=O)=O)c(-c3ccc4c(n3)-c3cc5c(F)cccc5n3C(CO)O4)cc12 (stereo not shown) [Compound 23] | 2.8 nM | 2.9 nM
CNC(=O)c1c(-n2ccc(C)cc2=O)oc2cc(N(C)S(C)(=O)=O)c(-c3ccc4c(n3)-c3cc5c(F)cccc5n3CO4)cc12 [Compound 38] | 3.5 nM | 2.7 nM
CNC(=O)c1c(-c2ccc(C#N)cc2)oc2cc(N(C)S(C)(=O)=O)c(-c3ccc4c(n3)-c3cc5c(F)cccc5n3CO4)cc12 [Compound 29, 2-(4-cyanophenyl)-5-(11-fluoro-6H-pyrido[2′,3′:5,6][1,3]oxazino[3,4-a]indol-2-yl)-N-methyl-6-(N-methylmethylsulfonamido)benzofuran-3-carboxamide] | 13 nM | 25 nM
CNC(=O)c1c(-c2ccc(C(F)F)cc2)oc2cc(N(C)S(C)(=O)=O)c(-c3ccc4c(n3)-c3cc5c(F)cccc5n3CO4)cc12 [Compound 28, 2-(4-(difluoromethyl)phenyl)-5-(11-fluoro-6H-pyrido[2′,3′:5,6][1,3]oxazino[3,4-a]indol-2-yl)-N-methyl-6-(N-methylmethylsulfonamido)benzofuran-3-carboxamide] | 9 nM | 6.9 nM
CNC(=O)c1c(-c2cn(C)nc2C)oc2cc(N(C)S(C)(=O)=O)c(-c3ccc4c(n3)-c3cc5c(F)cccc5n3CO4)cc12 [Compound 16] | 26 nM | 8.5 nM
CNC(=O)c1c(-c2ccc(OC(C)C)nc2)oc2cc(N(C)S(C)(=O)=O)c(-c3ccc4c(n3)-c3cc5c(F)cccc5n3CO4)cc12 [Compound 10] | 15 nM | 13 nM
CNC(=O)c1c(-c2cnn(C(C)C)c2)oc2cc(N(C)S(C)(=O)=O)c(-c3ccc4c(n3)-c3cc5c(F)cccc5n3CO4)cc12 [Compound 34] | 15 nM | 14 nM
CNC(=O)c1c(-c2ccc(=O)n(C(F)F)c2)oc2cc(N(C)S(C)(=O)=O)c(-c3ccc4c(n3)-c3cc5c(F)cccc5n3CO4)cc12 [Compound 26, 2-(1-(difluoromethyl)-6-oxo-1,6-dihydropyridin-3-yl)-5-(11-fluoro-6H-pyrido[2′,3′:5,6][1,3]oxazino[3,4-a]indol-2-yl)-N-methyl-6-(N-methylmethylsulfonamido)benzofuran-3-carboxamide] | 118 nM | 108 nM
CCn1cc(-c2oc3cc(N(C)S(C)(=O)=O)c(-c4ccc5c(n4)-c4cc6c(F)cccc6n4CO5)cc3c2C(=O)NC)cn1 [Compound 14] | 9.1 nM | 18 nM
CNC(=O)c1c(C23CCCC2C3)oc2cc(N(C)S(C)(=O)=O)c(-c3ccc4c(n3)-c3cc5c(F)cccc5n3CO4)cc12 (stereo not shown) [Compound 48, 2-(bicyclo[3.1.0]hexan-1-yl)-5-(11-fluoro-6H-pyrido[2′,3′:5,6][1,3]oxazino[3,4-a]indol-2-yl)-N-methyl-6-(N-methylmethylsulfonamido)benzofuran-3-carboxamide] | 28 nM | 34 nM
CNC(=O)c1c(-n2cnc(C)n2)oc2cc(N(C)S(C)(=O)=O)c(-c3ccc4c(n3)-c3cc5c(F)cccc5n3CO4)cc12 [Compound 41] | 82 nM | 22 nM
CNC(=O)c1c(-c2cccnc2OC)oc2cc(N(C)S(C)(=O)=O)c(-c3ccc4c(n3)-c3cc5c(F)cccc5n3CO4)cc12 [Compound 15] | 23 nM | 34 nM
CNC(=O)c1c(C2=CCCC2)oc2cc(N(C)S(C)(=O)=O)c(-c3ncc4c(n3)-c3cc5c(F)cccc5n3CO4)cc12 [Compound 47] | 5.9 nM | 8.8 nM
CNC(=O)c1c(-c2cnc(OC)nc2)oc2cc(N(C)S(C)(=O)=O)c(-c3ccc4c(n3)-c3cc5c(F)cccc5n3CO4)cc12 [Compound 13] | 16 nM | 9.4 nM
CNC(=O)c1c(C(=O)N2CCC2)oc2cc(N(C)S(C)(=O)=O)c(-c3ccc4c(n3)-c3cc5c(F)cccc5n3CO4)cc12 [Compound 56] | 5 nM | 11 nM
CNC(=O)c1c(-c2ccc(OC)nc2)oc2cc(N(C)S(C)(=O)=O)c(-c3ccc4c(n3)-c3nc5c(F)cccc5n3CO4)cc12 [Compound 20, 5-(11-fluoro-6H-benzo[4,5]imidazo[1,2-c]pyrido[2,3-e][1,3]oxazin-2-yl)-2-(6-methoxypyridin-3-yl)-N-methyl-6-(N-methylmethylsulfonamido)benzofuran-3-carboxamide] | 3.7 nM | 2.5 nM

Reference: US9242998B2, “Tetracyclic heterocycle compounds and methods of use thereof for the treatment of hepatitis C” (priority 2013, dated 2016)
